Source: PubChem BioAssay (NCI)
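Five compound concentrations were applied to cells in 96-well plates for 48 hours; endpoints were derived by simple linear interpolation of the resulting dose-response curve. GI50: concentration for 50% inhibition of growth. TGI denotes the concentration required for complete inhibition of growth.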

How the values were obtained:
Test in all cases: growth of human tumour cells (NCI), 48 h
UO-31 renal = test system: UO-31 renal
MDA-MB-435 = test system: MDA-MB-435
SR leukemia = test system: SR leukemia
CCRF-CEM leukemia = test system: CCRF-CEM leukemia
HS 578T breast = test system: HS 578T breast
UACC-257 melanoma = test system: UACC-257 melanoma
SF-539 CNS = test system: SF-539 CNS
SW-620 colon = test system: SW-620 colon
RPMI-8226 leukemia = test system: RPMI-8226 leukemia
MCF7 breast = test system: MCF7 breast

SMILES | TGI (UO-31 renal) [µM] | TGI (MDA-MB-435) [µM] | TGI (SR leukemia) [µM] | TGI (CCRF-CEM leukemia) [µM] | TGI (HS 578T breast) [µM] | TGI (UACC-257 melanoma) [µM] | TGI (SF-539 CNS) [µM] | TGI (SW-620 colon) [µM] | TGI (RPMI-8226 leukemia) [µM] | TGI (MCF7 breast) [µM] | GI50 (UO-31 renal) [µM] | GI50 (MDA-MB-435) [µM] | GI50 (SR leukemia) [µM] | GI50 (CCRF-CEM leukemia) [µM] | GI50 (HS 578T breast) [µM] | GI50 (UACC-257 melanoma) [µM] | GI50 (SF-539 CNS) [µM] | GI50 (SW-620 colon) [µM] | GI50 (RPMI-8226 leukemia) [µM] | GI50 (MCF7 breast) [µM]
CC1=C(/C=C/C(C)=C/C=C/C(C)=C/C(=O)O)C(C)(C)CCC1 | > 74.7 | > 100 | > 87.4 | 70.8 | > 81 | 99.7 | 75.7 | 64.2 | 57.7 | > 77.9 |  |  |  |  |  |  |  |  |  | 
COC(=O)c1cc2c3ccccc3[nH]c2c2sccc12 | > 100 | > 100 | 56.5 | > 100 | 38.7 | > 100 | 94.8 | > 100 | > 100 | > 100 | 7.59 | 20.3 | 12.2 | 46 | 13.5 | 89.6 | 21.5 | 35.1 | 15.1 | 27
CCc1ccc(C(=Nc2ccc(N(C)C(=O)CN3CCN(C)CC3)cc2)c2c(O)[nH]c3ccc(C(=O)OC)cc23)cc1 | 1.36 | 1.9 | 0.835 | 1.16 | 1.1 | 3.2 | 1.56 | 1.29 | 1.67 | 1.4 | 0.287 | 0.532 | 0.164 | 0.256 | 0.169 | 1.54 | 0.426 | 0.259 | 0.424 | 0.256
O=C(N/N=C/c1ccc(O)cc1O)c1cccc(Nc2ccnc(C(F)(F)F)c2)c1 | 33.6 | 20.8 | 6.34 | 2.14 | 46.7 | 12.3 | 7.74 | 21.4 | 14.9 | 15.5 | 1.44 | 0.861 | 0.29 | 0.257 | 7.71 | 3.06 | 0.967 | 4.07 | 3.55 | 2.2
Cc1cc(-c2ccccn2)cc(C)c1/C=C/c1cncc(-c2nn[nH]n2)c1 | > 25 | > 25 | > 25 | > 25 | > 25 | > 25 | > 25 | > 25 | > 25 | > 25 | > 25 | > 25 | > 25 | > 25 | > 25 | > 25 | > 25 | > 25 | > 25 | > 25
CCCCCCCCCNC(=O)/C=C/c1ccc(O)c(O)c1 | 14.9 | 23.5 | 21 | 1.75 | 12.9 | 69.6 | 38.2 | 30.4 | 19.4 | > 100 | 1.42 | 7.58 | 2.76 | 0.0426 | 0.451 | 29.5 | 15.1 | 3.06 | 0.61 | 28.3
CCOC(=O)C#Cc1c(C(=O)OCC)nnn1Cc1ccc([N+](=O)[O-])cc1 | 3.78 | 12.4 | 4.4 | 5 | 61.4 | 7.08 |  | 3.79 | 7.37 | 7.22 | 1.75 | 3.35 | 1.15 | 1.26 | 19.4 | 2.71 |  | 1.85 | 2.8 | 2.3
NS(=O)(=O)c1ccc(N(/C=C/C(=O)C(F)(F)F)Cc2ccc(Cl)cc2)cc1 | 44.6 | 96.5 | 43.5 | 40.3 | > 100 | 52.8 | 34 | > 100 | 89.1 | > 100 | 15.8 | 30.6 | 20.5 | 16 | 38.1 | 24.1 | 17.4 | 30.5 | 26.2 | 93.9
[N-]=[N+]=NCCCn1c2c(c3ccc([N+](=O)[O-])cc3c1=O)C(=O)c1cc(F)ccc1-2 | 12.6 | > 86.4 | 2.86 | 3.88 | > 100 | > 100 | > 100 | > 100 | 1.28 | > 55.1 | 0.807 | 4.15 | 0.113 | 0.432 | 36.5 | 10.3 | 2.38 | 1.76 | 0.237 | 0.311
CC(C(N)C(=O)NC(C(=O)O)C1OC(n2ccc(=O)[nH]c2=O)C(O)C1O)C(O)c1ccc(O)cn1 (stereo unspecified) | > 100 | > 100 | > 100 | > 100 | > 100 | > 100 | > 100 | > 100 | > 100 | > 100 |  |  |  |  |  |  |  |  |  | 
CC(=O)O[C@H]1[C@@H]2OC(=O)C(CSc3ccccc3)[C@@H]2C[C@H]2O[C@]2(C)CC/C=C(\C)CCC[C@@H]1C (stereo partly specified) | 5.26 | 5.9 | > 20.1 | > 21.1 | 10.2 | 19.2 | 23.3 | 4.92 | 10.4 | 12 | 1.96 | 2.12 | 1.69 | 2.17 | 2.79 | 5.07 | 9.4 | 2.22 | 0.192 | 2.62
CCN(CC)C(=S)SCN1C(=O)c2ccccc2S1(=O)=O | > 100 | > 100 | 27.7 | 0.016 | > 100 | > 100 | > 100 | > 100 |  | > 100 | 53.9 | 60.9 | < 0.01 | < 0.01 | > 100 | 56.3 | 41.7 | 43 | < 0.01 | 0.562
COc1cc(C2=N/C(=C/c3cccs3)C(=O)O2)cc(OC)c1OC |  | > 100 | > 100 | > 100 | > 100 | > 100 | > 100 | > 100 | > 100 | > 100 |  |  |  |  |  |  |  |  |  | 
O=C1C2CCN(CC2)C1(CO)CO | 34.1 | > 100 | 55.3 | 32.2 | 70.6 | 37.7 | > 78.1 | 36.3 | 43.4 | 66.4 |  |  |  |  |  |  |  |  |  | 
